# Measured values from patent publication US9518038B2, “Condensation product of theanine derivative and carboxylic acid coumarin derivative, its intermediate, preparation method and use thereof” (SHANDONG YINGDONG YINGHAO BIOTECHNOLOGY, INC., priority 2012, dated 2016).
# How the values were obtained:
# [1] = system: human lung cancer cells A549; assay: MTT growth inhibition, A549 cells; type: cell-based; conditions: 72 h after treatment, read-out: Drug concentration (IC50) at which 50% cancer cells survived
# From the text: (§1) Cell lines and cell culture: human lung cancer cells A549 and H460, human breast cancer cells MCF-7 and MDA-MB-231, human gastric cancer cells BGC-823, human prostate cancer cells PC-3, human chronic leukemia cells K562, human lymphoma cells U937, human liver cancer cells SMMC7721 and HepG2, human colon cancer cells HT29, human pancreatic cancer cells PANC-1 and BxPC3, human cervical cancer Hela cell lines, human brain tumor cells Daoy, human neuroma cells D54 and human oral epidermoid cancer cells KBV200 line with strong drug resistance, mouse melanoma cells B16, and highly metastatic Lewis lung cancer cell lines were purchased from American Type Culture Collection of the U.S. These cells were cultured with DMEM and RPMI-1640 culture solutions separately.
# (§2) The procedure was as follows:
# (§3) (1) 0.25% trypsin was used to digest cancer cells in a logarithmic growth phase to prepare a single-cell suspension, the concentration of cells was adjusted to 5×10^4/mL, and the adjusted suspension was inoculated into a 96-well culture plate with 100 μl per well;
# (§4) (2) The culture plate was transferred into a 37° C. incubator with a saturated humidity and 5% of CO2 and cultured for 24 h; the compounds and the intermediates thereof obtained in embodiments 1-7 and the compound as represented by formula (IIIa) or the positive control anti-cancer drug with the concentration of 1-1000 μM/L were added to enable the final concentration to be 0.1-1500 μM/L. Control wells (only added with 200 μl of cell suspension) and drug-free blank control wells (containing the solvent of 0.01% DMSO) were set, each group included 8 wells, and the plate was placed into the 37° C. incubator with saturated humidity and 5% of CO2 for culturing;
# (§5) (3) The 96-well plate was taken out at 48 h and 72 h after dosing, the original culture medium was carefully removed by suction, 100 μl of serum-free DMEM culture medium and 10 μl of MTT (5 mg/mL) solution were added in each well. The plate was continuously cultured for another 4 h and then the culture was terminated;
# (§6) (4) The supernatant in the wells was carefully removed by suction, each well was added with 150 μl of DMSO and shaked at room temperature for 10-15 min to fully dissolve crystals.
# (§7) (5) Colorimetric analysis: the wavelength was selected as 570 nm, the light absorbance (A value) of each well was determined on the microplate reader and the results were recorded; the experiment was repeated for three times;
# (§8) (6) the experimental results were calculated according to the following formula: relative survival rate=(A value of each experimental group/A value of cell control group)×100%
# (§9) Calculation of median-effect concentration (IC50, namely the drug concentration at which the inhibition rate is 50%, also known as half inhibitory concentration):
# (§10) IC50 of the detected component was calculated by using a regression equation.
# [2] = system: human lung cancer cells H460; assay: MTT growth inhibition, H460 cells; type: cell-based; conditions: NCI-H460, 72 h after treatment, read-out: Drug concentration (IC50) at which 50% cancer cells survived
# From the text: as §1, §2, §3, §4, §5, §6, §7, §8, §9, §10
# [3] = system: human breast cancer cells MCF-7; assay: MTT growth inhibition, MCF-7 cells; type: cell-based; conditions: MCF7, 72 h after treatment, read-out: Drug concentration (IC50) at which 50% cancer cells survived
# From the text: as §1, §2, §3, §4, §5, §6, §7, §8, §9, §10
# [4] = system: human breast cancer cells MDA-MB-231; assay: MTT growth inhibition, MDA-MB-231 cells; type: cell-based; conditions: 72 h after treatment, read-out: Drug concentration (IC50) at which 50% cancer cells survived
# From the text: as §1, §2, §3, §4, §5, §6, §7, §8, §9, §10
# [5] = system: human gastric cancer cells BGC-823; assay: MTT growth inhibition, BGC-823 cells; type: cell-based; conditions: 72 h after treatment, read-out: Drug concentration (IC50) at which 50% cancer cells survived
# From the text: as §1, §2, §3, §4, §5, §6, §7, §8, §9, §10
# [6] = system: human prostate cancer cells PC-3; assay: MTT growth inhibition, PC-3 cells; type: cell-based; conditions: 72 h after treatment, read-out: Drug concentration (IC50) at which 50% cancer cells survived
# From the text: as §1, §2, §3, §4, §5, §6, §7, §8, §9, §10
# [7] = system: human lymphoma cells U937; assay: MTT growth inhibition, U937 cells; type: cell-based; conditions: Homo sapiens, U-937, 72 h after treatment, read-out: Drug concentration (IC50) at which 50% cancer cells survived
# Description: as §2, §5, §6, §7, §8, §10
# [8] = system: human pancreatic cancer cells PANC-1; assay: MTT growth inhibition, PANC-1 cells; type: cell-based; conditions: 72 h after treatment, read-out: Drug concentration (IC50) at which 50% cancer cells survived
# From the text: as §1, §2, §3, §4, §5, §6, §7, §8, §9, §10
# [9] = system: human cervical cancer Hela cell lines; assay: MTT growth inhibition, Hela cells; type: cell-based; conditions: Homo sapiens, 72 h after treatment, read-out: Drug concentration (IC50) at which 50% cancer cells survived
# From the text: as §1, §2, §3, §4, §5, §6, §7, §8, §9, §10
# [10] = system: human liver cancer cells SMMC7721; assay: MTT growth inhibition, SMMC7721 cells; type: cell-based; conditions: SMMC-7721, S-7721 (SMMC7721), 72 h after treatment, read-out: Drug concentration (IC50) at which 50% cancer cells survived
# From the text: as §1, §2, §3, §4, §5, §6, §7, §8, §9, §10
# [11] = system: human colon cancer cells HT29; assay: MTT growth inhibition, HT29 cells; type: cell-based; conditions: HT-29, 72 h after treatment, read-out: Drug concentration (IC50) at which 50% cancer cells survived
# From the text: as §1, §2, §3, §4, §5, §6, §7, §8, §9, §10
# [12] = system: mouse melanoma cells B16; assay: MTT growth inhibition, B16 cells; type: cell-based; conditions: Mus musculus, 72 h after treatment, read-out: Drug concentration (IC50) at which 50% cancer cells survived
# From the text: as §1, §2, §3, §4, §5, §6, §7, §8, §9, §10
# [13] = system: human chronic leukemia cells K562; assay: MTT growth inhibition, K562 cells; type: cell-based; conditions: 72 h after treatment, read-out: Drug concentration (IC50) at which 50% cancer cells survived
# From the text: as §1, §2, §3, §4, §5, §6, §7, §8, §9, §10
# [14] = system: highly metastatic Lewis lung cancer cell lines; assay: MTT growth inhibition, LLC cells; type: cell-based, mouse; conditions: Mus musculus, Lewis lung carcinoma, 72 h after treatment, read-out: Drug concentration (IC50) at which 50% cancer cells survived
# From the text: as §1, §2, §3, §4, §5, §6, §7, §8, §9, §10
# [15] = system: human pancreatic cancer cells BxPC3; assay: MTT growth inhibition, BxPc3 cells; type: cell-based; conditions: Homo sapiens, BXPC-3, 72 h after treatment, read-out: Drug concentration (IC50) at which 50% cancer cells survived
# From the text: as §1, §2, §3, §4, §5, §6, §7, §8, §9, §10
# [16] = system: human liver cancer cells HepG2; assay: MTT growth inhibition, HepG2 cells; type: cell-based; conditions: 72 h after treatment, read-out: Drug concentration (IC50) at which 50% cancer cells survived
# From the text: as §1, §2, §3, §4, §5, §6, §7, §8, §9, §10
# [17] = system: Caski human cervical cancer cells; assay: MTT growth inhibition, Caski cells; type: cell-based; conditions: Ca-Ski, 72 h after treatment, read-out: Drug concentration (IC50) at which 50% cancer cells survived
# [18] = system: human brain tumor cells Daoy; assay: MTT growth inhibition, Daoy cells; type: cell-based; conditions: Homo sapiens, 72 h after treatment, read-out: Drug concentration (IC50) at which 50% cancer cells survived
# From the text: as §1, §2, §3, §4, §5, §6, §7, §8, §9, §10
# [19] = system: human neuroma cells D54; assay: MTT growth inhibition, D54 cells; type: cell-based; conditions: Homo sapiens, 72 h after treatment, read-out: Drug concentration (IC50) at which 50% cancer cells survived
# From the text: as §1, §2, §3, §4, §5, §6, §7, §8, §9, §10
# [20] = system: human oral epidermoid cancer cells KBV200; assay: MTT growth inhibition, KBV200 cells; type: cell-based; conditions: 72 h after treatment, read-out: Drug concentration (IC50) at which 50% cancer cells survived
# From the text: as §1, §2, §3, §4, §5, §6, §7, §8, §9, §10
smiles,measurement,setting,value
"O=C(O)c1cc2cc(Br)cc(Br)c2oc1=O [Compound IIIh, 6,8-dibromo-coumarin-3-carboxylic acid]",IC50,[1],450 µM
same,IC50,[2],550 µM
same,IC50,[3],450 µM
same,IC50,[4],420 µM
same,IC50,[5],480 µM
same,IC50,[6],410 µM
same,IC50,[7],390 µM
same,IC50,[8],480 µM
same,IC50,[9],290 µM
same,IC50,[10],530 µM
same,IC50,[11],590 µM
same,IC50,[12],460 µM
same,IC50,[13],480 µM
same,IC50,[14],350 µM
same,IC50,[15],400 µM
same,IC50,[16],145 µM
same,IC50,[17],135 µM
same,IC50,[18],350 µM
same,IC50,[19],300 µM
same,IC50,[20],300 µM
